Key:
[1] = target: T1, Carbonic anhydrase 1 (Homo sapiens, UniProt P00915); experiment: Inhibition of esterase-activity of CA1 from human erythrocytes by spectrophotometry
[2] = target: T2, Carbonic anhydrase 2 (Homo sapiens, UniProt P00918); experiment: Inhibition of esterase-activity of human erythrocytes CA2 by spectrophotometry
[3] = target: T1, Carbonic anhydrase 1; experiment: Inhibition of CA1 from human erythrocytes by Lineweaver-Burke analysis
[4] = target: T2, Carbonic anhydrase 2; experiment: Inhibition of human erythrocytes CA2 by Lineweaver-Burke analysis
[5] = target: T1, Carbonic anhydrase 1; experiment: Inhibition of hydratase-activity of CA1 from human erythrocytes by CO2-hydration method
[6] = target: T2, Carbonic anhydrase 2; experiment: Inhibition of hydratase-activity of human erythrocytes CA2 by CO2-hydration method

T1 sequence (P00915 whole entry): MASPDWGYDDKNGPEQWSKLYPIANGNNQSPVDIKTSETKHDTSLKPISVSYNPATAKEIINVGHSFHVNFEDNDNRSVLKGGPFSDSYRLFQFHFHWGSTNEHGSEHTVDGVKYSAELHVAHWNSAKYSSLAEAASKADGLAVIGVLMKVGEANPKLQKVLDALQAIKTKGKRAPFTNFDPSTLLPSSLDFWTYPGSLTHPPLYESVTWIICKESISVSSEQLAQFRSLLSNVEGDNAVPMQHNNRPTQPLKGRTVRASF

Structure (SMILES)	IC50 ([1]; read-out: IC50) [nM]	IC50 ([2]; read-out: IC50) [nM]	IC50 ([3]; read-out: IC50) [nM]	IC50 ([4]; read-out: IC50) [nM]	IC50 ([5]; read-out: IC50) [nM]	IC50 ([6]; read-out: IC50) [nM]	IC50 [1]	IC50 [2]	IC50 [3]	IC50 [4]	IC50 [5]	IC50 [6]
NS(=O)(=O)c1cc(C(=O)O)c(Cl)cc1Cl	3200	18000	7700	22000	430	380						
NCc1ccccn1							Not Active	Not Active	Not Active	Not Active	Not Active	Not Active
NCc1ccccn1.NS(=O)(=O)c1cc(C(=O)O)c(Cl)cc1Cl	320	290	250	220	260	300						
